The text below walks through data of the supplement of paper PMC12076712.

Common to all, as to assay: pIC50, kinobeads binding competition
For experiment [1], the target named is DYRK1B (UniProt Q9Y463). The essentials:
(§1)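 Either living Jurkat cells (60 min at 37 °C, then lysis) or lysates (60 min at 4 °C) were treated with nine compound concentrations from a top of 30 μM, in 1:4 steps for cells and 1:5 steps for lysates. The lysates were from Jurkat cells or a 1:1:1:1 mix of HEK293, K-562, HepG2 and placenta. Kinobeads-bound proteins were digested and quantified by TMT10 LC-MS/MS. pIC50 was calculated by logistic dose-response fitting (R drc package) of fold changes relative to vehicle, in biological duplicates.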

Experiment [2] concerns the target MAPK11 (UniProt Q15759). The procedure, abridged:
as §1

Experiment [3] concerns the target AAK1 (UniProt Q2M2I8). The procedure, abridged:
as §1

Experiment [4] deals with UniProt Q16584. The essentials:
as §1

Experiment [5] has as its target T1, UniProt O14965.
T1 sequence (whole entry): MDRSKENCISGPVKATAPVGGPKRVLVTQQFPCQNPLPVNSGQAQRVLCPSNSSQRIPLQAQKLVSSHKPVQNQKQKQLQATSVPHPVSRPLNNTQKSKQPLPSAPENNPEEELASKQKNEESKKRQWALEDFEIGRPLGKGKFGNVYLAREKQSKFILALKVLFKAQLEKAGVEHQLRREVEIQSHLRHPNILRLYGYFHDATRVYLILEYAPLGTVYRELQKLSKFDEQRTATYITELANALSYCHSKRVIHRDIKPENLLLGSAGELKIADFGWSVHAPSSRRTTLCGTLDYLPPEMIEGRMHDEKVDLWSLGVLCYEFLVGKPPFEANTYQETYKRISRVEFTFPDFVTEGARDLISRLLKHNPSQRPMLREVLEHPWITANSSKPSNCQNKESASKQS
The procedure, abridged:
as §1

Experiment [6] has as its target UniProt P28482. The procedure, abridged:
as §1

In experiment [7] the target is PIM3 (UniProt Q86V86). The procedure, abridged: as §1
Experiment [8] has as its target CLK1 (UniProt P49759). The essentials:
as §1

Experiment [9] addresses T2, MYLK3 (UniProt Q32MK0).
T2 sequence (whole entry): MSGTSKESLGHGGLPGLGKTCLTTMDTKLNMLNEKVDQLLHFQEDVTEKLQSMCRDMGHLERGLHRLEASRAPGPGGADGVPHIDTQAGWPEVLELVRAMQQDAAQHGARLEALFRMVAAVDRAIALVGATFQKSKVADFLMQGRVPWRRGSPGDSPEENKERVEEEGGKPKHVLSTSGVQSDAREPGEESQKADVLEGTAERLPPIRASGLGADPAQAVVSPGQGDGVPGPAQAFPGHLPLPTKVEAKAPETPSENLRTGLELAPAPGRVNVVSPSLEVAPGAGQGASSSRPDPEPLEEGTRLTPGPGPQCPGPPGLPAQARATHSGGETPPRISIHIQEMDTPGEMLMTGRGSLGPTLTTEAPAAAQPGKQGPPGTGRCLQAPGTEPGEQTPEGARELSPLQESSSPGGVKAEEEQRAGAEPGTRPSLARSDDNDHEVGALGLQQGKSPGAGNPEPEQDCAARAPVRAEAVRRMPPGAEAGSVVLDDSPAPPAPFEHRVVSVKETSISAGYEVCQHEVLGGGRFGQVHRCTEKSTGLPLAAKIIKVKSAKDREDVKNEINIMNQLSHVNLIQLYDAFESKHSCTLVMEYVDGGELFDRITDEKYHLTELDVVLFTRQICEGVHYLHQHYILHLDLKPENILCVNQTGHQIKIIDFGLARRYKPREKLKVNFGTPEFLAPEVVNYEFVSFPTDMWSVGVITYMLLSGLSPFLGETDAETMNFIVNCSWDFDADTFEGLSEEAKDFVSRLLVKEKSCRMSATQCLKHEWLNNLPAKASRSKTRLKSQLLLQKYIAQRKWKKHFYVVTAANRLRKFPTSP
To be noted: cell material: Lysate mix. The procedure, abridged:
as §1

Experiment [10] addresses UniProt Q16659. The essentials:
as §1

Experiment [11] addresses UniProt P36507. The essentials:
as §1

In experiment [12] the target is T3, UniProt Q13188.
T3 sequence (whole entry): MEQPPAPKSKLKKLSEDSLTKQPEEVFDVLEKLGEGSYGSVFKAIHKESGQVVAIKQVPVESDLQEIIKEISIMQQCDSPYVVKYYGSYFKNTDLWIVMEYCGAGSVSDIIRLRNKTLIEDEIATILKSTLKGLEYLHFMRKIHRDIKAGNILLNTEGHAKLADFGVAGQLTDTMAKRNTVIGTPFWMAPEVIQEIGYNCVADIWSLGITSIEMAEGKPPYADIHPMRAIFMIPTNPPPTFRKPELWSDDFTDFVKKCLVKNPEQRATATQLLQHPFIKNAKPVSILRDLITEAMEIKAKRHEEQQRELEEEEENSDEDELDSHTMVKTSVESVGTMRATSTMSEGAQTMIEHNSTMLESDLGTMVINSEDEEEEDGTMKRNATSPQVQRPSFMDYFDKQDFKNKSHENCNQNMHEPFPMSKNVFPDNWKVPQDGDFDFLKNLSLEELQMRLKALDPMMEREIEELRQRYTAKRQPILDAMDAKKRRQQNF
The essentials:
as §1

The target in experiment [13] is PLK1 (UniProt P53350). The essentials: as §1
Experiment [14] addresses DDR1 (UniProt Q08345). The procedure, abridged: as §1

MAPK11, sequence (Q15759 whole entry): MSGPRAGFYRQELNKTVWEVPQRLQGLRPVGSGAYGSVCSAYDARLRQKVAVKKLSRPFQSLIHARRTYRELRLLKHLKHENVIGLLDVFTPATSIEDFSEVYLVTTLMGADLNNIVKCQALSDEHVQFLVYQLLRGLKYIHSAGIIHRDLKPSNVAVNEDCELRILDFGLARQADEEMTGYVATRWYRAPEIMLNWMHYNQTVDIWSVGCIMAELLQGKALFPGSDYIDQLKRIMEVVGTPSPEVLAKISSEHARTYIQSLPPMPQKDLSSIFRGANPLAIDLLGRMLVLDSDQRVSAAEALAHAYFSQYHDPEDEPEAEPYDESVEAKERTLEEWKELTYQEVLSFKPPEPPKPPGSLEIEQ
UniProt Q16659, sequence (Q16659 whole entry): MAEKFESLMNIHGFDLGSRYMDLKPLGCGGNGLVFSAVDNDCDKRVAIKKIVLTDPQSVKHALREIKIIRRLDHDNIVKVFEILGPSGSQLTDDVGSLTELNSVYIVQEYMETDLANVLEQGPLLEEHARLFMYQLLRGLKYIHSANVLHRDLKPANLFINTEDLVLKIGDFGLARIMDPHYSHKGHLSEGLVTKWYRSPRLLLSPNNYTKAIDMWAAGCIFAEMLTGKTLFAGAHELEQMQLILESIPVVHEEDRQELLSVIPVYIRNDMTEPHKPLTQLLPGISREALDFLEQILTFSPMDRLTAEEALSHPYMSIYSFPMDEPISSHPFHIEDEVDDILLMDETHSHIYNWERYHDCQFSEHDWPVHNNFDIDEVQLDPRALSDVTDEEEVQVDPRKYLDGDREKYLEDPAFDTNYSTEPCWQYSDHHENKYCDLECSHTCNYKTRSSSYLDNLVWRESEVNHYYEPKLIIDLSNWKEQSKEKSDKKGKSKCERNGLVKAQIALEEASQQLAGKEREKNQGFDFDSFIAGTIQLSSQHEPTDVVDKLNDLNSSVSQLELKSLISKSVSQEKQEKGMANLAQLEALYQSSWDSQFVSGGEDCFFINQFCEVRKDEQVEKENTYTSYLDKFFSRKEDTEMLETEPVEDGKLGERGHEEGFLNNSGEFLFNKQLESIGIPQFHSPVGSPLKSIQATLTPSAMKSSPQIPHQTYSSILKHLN
UniProt P36507, sequence (P36507 whole entry): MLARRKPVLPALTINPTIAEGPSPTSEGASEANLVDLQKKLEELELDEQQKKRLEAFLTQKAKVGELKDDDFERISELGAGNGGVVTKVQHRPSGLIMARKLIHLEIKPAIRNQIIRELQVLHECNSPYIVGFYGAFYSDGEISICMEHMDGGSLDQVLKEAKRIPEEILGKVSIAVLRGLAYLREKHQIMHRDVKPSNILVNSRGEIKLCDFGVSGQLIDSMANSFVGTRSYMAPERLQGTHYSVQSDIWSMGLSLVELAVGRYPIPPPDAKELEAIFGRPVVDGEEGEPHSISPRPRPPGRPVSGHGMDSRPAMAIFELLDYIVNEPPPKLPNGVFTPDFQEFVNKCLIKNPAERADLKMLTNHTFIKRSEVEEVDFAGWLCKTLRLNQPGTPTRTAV
PLK1, sequence (P53350 whole entry): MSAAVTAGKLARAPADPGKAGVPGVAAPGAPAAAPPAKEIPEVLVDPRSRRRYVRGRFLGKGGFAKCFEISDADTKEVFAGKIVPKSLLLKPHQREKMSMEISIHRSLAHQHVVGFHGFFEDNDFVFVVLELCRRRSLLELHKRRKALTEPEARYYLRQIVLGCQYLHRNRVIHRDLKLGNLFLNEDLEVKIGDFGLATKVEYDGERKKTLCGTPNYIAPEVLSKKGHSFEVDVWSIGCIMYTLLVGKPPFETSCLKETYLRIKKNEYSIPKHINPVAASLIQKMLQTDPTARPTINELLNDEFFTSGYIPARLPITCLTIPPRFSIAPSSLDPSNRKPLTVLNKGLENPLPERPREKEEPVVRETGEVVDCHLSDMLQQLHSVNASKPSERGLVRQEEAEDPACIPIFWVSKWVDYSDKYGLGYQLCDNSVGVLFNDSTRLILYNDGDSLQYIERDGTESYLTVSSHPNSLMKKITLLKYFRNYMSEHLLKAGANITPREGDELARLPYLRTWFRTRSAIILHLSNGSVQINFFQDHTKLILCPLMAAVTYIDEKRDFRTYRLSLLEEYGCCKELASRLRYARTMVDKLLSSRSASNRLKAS
DDR1, sequence (Q08345 whole entry): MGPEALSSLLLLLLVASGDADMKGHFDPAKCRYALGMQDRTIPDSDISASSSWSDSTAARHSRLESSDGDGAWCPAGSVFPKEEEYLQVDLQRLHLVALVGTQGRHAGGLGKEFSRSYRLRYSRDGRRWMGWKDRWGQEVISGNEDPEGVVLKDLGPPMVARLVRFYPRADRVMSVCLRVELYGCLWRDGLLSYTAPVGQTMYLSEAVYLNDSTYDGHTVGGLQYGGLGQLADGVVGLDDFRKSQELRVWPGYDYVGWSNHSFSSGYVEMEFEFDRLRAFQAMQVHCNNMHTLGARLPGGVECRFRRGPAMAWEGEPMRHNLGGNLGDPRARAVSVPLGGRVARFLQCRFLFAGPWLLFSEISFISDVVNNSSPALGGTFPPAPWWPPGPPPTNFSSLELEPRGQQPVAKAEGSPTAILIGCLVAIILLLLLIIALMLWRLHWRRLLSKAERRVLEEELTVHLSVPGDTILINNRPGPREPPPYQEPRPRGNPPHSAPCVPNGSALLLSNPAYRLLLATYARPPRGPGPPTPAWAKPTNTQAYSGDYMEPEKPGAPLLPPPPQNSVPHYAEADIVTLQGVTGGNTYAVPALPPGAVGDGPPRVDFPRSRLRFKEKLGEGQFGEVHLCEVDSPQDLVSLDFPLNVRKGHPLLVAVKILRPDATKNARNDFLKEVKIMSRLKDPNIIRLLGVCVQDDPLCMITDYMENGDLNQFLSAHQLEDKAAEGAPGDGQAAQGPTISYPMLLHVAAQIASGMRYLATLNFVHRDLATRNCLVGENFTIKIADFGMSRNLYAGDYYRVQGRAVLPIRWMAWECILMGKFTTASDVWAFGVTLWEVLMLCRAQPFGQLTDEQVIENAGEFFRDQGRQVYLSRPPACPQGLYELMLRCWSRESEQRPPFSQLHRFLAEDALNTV
UniProt Q16584, sequence (Q16584 whole entry, looked up): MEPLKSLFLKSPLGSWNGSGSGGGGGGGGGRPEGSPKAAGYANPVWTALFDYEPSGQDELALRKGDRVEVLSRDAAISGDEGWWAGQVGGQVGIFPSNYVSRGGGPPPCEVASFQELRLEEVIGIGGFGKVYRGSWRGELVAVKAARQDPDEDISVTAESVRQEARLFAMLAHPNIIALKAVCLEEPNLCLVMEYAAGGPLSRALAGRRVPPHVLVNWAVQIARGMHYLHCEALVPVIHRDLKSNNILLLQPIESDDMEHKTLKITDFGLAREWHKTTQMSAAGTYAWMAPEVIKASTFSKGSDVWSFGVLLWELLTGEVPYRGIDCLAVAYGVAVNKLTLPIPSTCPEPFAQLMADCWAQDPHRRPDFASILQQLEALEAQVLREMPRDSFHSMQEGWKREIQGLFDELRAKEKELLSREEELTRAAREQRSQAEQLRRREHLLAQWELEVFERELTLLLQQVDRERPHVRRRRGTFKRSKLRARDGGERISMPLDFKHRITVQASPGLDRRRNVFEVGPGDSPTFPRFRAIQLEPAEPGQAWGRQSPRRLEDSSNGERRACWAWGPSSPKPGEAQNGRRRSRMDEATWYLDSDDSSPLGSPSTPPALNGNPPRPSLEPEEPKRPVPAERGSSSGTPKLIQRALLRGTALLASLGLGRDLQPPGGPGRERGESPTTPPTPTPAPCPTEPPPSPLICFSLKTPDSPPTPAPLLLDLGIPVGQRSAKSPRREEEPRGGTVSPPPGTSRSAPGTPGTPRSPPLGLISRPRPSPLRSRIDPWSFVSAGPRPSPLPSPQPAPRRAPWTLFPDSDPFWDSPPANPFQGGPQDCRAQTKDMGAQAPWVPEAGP
AAK1, sequence (Q2M2I8 whole entry, looked up): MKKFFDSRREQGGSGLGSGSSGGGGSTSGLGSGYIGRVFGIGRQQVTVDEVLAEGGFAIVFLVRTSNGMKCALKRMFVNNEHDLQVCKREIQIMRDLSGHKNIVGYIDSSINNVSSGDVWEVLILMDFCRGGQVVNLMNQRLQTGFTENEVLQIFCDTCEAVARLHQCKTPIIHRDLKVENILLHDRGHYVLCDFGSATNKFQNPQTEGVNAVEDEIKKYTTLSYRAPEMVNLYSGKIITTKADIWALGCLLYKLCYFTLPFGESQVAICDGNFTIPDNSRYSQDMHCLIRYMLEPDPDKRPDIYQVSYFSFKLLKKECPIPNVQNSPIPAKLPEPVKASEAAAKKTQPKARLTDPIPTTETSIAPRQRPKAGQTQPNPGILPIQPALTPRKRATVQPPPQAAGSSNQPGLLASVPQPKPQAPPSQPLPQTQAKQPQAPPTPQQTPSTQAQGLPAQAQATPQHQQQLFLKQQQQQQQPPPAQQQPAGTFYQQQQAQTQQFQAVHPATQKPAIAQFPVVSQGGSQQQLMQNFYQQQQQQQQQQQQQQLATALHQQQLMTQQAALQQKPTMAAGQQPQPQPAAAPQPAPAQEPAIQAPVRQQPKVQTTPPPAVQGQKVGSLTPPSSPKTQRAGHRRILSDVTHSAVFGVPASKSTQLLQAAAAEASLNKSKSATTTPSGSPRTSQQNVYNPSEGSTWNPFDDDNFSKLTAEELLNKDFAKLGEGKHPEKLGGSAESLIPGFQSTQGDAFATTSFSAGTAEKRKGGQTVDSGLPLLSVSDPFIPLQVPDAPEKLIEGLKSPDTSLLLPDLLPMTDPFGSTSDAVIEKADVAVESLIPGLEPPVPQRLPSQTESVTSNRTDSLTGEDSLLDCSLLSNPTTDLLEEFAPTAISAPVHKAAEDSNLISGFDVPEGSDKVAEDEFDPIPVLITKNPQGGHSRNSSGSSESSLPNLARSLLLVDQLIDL

For the molecule `O=C(NCCNC(=O)c1cc(Nc2cc(C3CC3)[nH]n2)nc(N2CCN(Cc3ccc(S(=O)(=O)F)cc3)CC2)n1)OC1CC/C=C/CCC1` (configuration not stated), the pIC50 is 4.8 in [1] (cell material: Jurkat cells); less than 4.52 in [1] (cell material: Jurkat lysate); less than 4.52 in experiment [1] (cell material: Lysate mix); less than 4.52 in [2] (cell material: Jurkat cells); less than 4.52 in experiment [2] (cell material: Jurkat lysate); less than 4.52 in [2] (cell material: Lysate mix). The pIC50 in experiment [3] (cell material: Jurkat cells) is less than 4.52; in experiment [3] (cell material: Jurkat lysate), less than 4.52; in experiment [3] (cell material: Lysate mix), less than 4.52; in [4] (cell material: Jurkat cells) it was 5.96; in experiment [4] (cell material: Jurkat lysate), less than 4.52; in experiment [4] (cell material: Lysate mix) it was less than 4.52. Also, the pIC50 in experiment [5] (cell material: Jurkat cells) was 6.98; in [5] (cell material: Jurkat lysate), 5; in experiment [5] (cell material: Lysate mix) it was 5.3; in experiment [6] (cell material: Jurkat cells), less than 4.52; in [6] (cell material: Jurkat lysate) it was less than 4.52; in experiment [6] (cell material: Lysate mix), less than 4.52. The pIC50 in experiment [7] (cell material: Jurkat cells) is 5.49; in [7] (cell material: Jurkat lysate) it was less than 4.52; in [7] (cell material: Lysate mix), less than 4.52; in experiment [8] (cell material: Jurkat lysate) it was less than 4.52; in experiment [8] (cell material: Lysate mix), less than 4.52; in experiment [9] it was less than 4.52. The pIC50 in experiment [10] (cell material: Jurkat cells) is less than 4.52; in [10] (cell material: Jurkat lysate), less than 4.52; in [10] (cell material: Lysate mix), less than 4.52; in experiment [11] (cell material: Jurkat cells), 5.27; in [11] (cell material: Jurkat lysate) it was less than 4.52; in experiment [11] (cell material: Lysate mix) it was less than 4.52. In addition, the pIC50 in experiment [12] (cell material: Jurkat cells) is 5.6; in [12] (cell material: Lysate mix), less than 4.52; in experiment [13] (cell material: Jurkat cells) it was 5.85; in experiment [13] (cell material: Jurkat lysate) it was less than 4.52; in experiment [13] (cell material: Lysate mix) it was less than 4.52; in experiment [14] (cell material: Jurkat cells) it was less than 4.52. Also, the pIC50 in experiment [14] (cell material: Jurkat lysate) and in experiment [14] (cell material: Lysate mix) was less than 4.52 throughout.
As for `Cc1cc(Nc2cc(C(=O)NCCNC(=O)OC3CC/C=C/CCC3)nc(N3CCN(Cc4ccc(S(=O)(=O)F)cc4)CC3)n2)n[nH]1` (configuration not stated), the pIC50 was less than 4.52 in experiment [1] (cell material: Lysate mix); less than 4.52 in experiment [2] (cell material: Lysate mix); less than 4.52 in experiment [3] (cell material: Lysate mix); less than 4.52 in [4] (cell material: Lysate mix); 5.39 in [5] (cell material: Lysate mix); less than 4.52 in experiment [6] (cell material: Lysate mix). For the same molecule, the pIC50 in experiment [7] (cell material: Lysate mix), in experiment [8] (cell material: Lysate mix), in [9], in experiment [10] (cell material: Lysate mix), in experiment [11] (cell material: Lysate mix) and in experiment [12] (cell material: Lysate mix) was less than 4.52 each time. For the same molecule, the pIC50 in experiment [13] (cell material: Lysate mix) and in [14] (cell material: Lysate mix) was less than 4.52 in each case.
With `CCNC(=O)c1cc(Nc2cc(C)[nH]n2)nc(N2CCN(Cc3ccc(S(=O)(=O)F)cc3)CC2)n1`, the pIC50 is less than 4.52 in experiment [1] (cell material: Lysate mix); less than 4.52 in experiment [2] (cell material: Lysate mix); less than 4.52 in experiment [3] (cell material: Lysate mix); less than 4.52 in experiment [4] (cell material: Lysate mix); 7.67 in experiment [5] (cell material: Lysate mix); less than 4.52 in experiment [6] (cell material: Lysate mix). The pIC50 in experiment [7] (cell material: Lysate mix) is less than 4.52; in [8] (cell material: Lysate mix), less than 4.52; in experiment [9], less than 4.52; in experiment [10] (cell material: Lysate mix) it was less than 4.52; in [11] (cell material: Lysate mix), less than 4.52; in experiment [12] (cell material: Lysate mix), 5.64. In addition, the pIC50 in experiment [13] (cell material: Lysate mix) and in experiment [14] (cell material: Lysate mix) was less than 4.52 throughout.
Turning to `C#CCNC(=O)c1cc(Nc2cc(C3CC3)[nH]n2)nc(N2CCN(Cc3ccc(S(=O)(=O)F)cc3)CC2)n1`, the pIC50 is 5.47 in experiment [1] (cell material: Jurkat cells); less than 4.52 in experiment [1] (cell material: Jurkat lysate); less than 4.52 in experiment [1] (cell material: Lysate mix); less than 4.52 in experiment [2] (cell material: Jurkat lysate); less than 4.52 in [2] (cell material: Lysate mix); 5.43 in experiment [3] (cell material: Jurkat cells). Moreover, the pIC50 was less than 4.52 in experiment [3] (cell material: Jurkat lysate); less than 4.52 in experiment [3] (cell material: Lysate mix); 6.26 in experiment [4] (cell material: Jurkat cells); 5.22 in [4] (cell material: Jurkat lysate); 5.64 in experiment [4] (cell material: Lysate mix); 7.04 in experiment [5] (cell material: Jurkat cells). The pIC50 was 6.25 in [5] (cell material: Jurkat lysate); 7.06 in experiment [5] (cell material: Lysate mix); 5.48 in [6] (cell material: Jurkat cells); less than 4.52 in experiment [6] (cell material: Jurkat lysate); less than 4.52 in [6] (cell material: Lysate mix); less than 4.52 in experiment [7] (cell material: Jurkat lysate). Besides, the pIC50 was less than 4.52 in [7] (cell material: Lysate mix); 6.11 in experiment [8] (cell material: Jurkat cells); 5.38 in [8] (cell material: Jurkat lysate); 5.66 in experiment [8] (cell material: Lysate mix); less than 4.52 in [9]; less than 4.52 in experiment [10] (cell material: Jurkat cells). In addition, the pIC50 in experiment [10] (cell material: Jurkat lysate) was less than 4.52; in [10] (cell material: Lysate mix) it was less than 4.52; in experiment [11] (cell material: Jurkat cells), 6.02; in experiment [11] (cell material: Jurkat lysate) it was less than 4.52; in experiment [11] (cell material: Lysate mix), 5.72; in experiment [12] (cell material: Jurkat cells), 6.3. Also, the pIC50 in [12] (cell material: Jurkat lysate) is 5.64; in [12] (cell material: Lysate mix) it was 6.27; in experiment [13] (cell material: Jurkat cells), 5.83; in experiment [13] (cell material: Jurkat lysate), less than 4.52; in experiment [13] (cell material: Lysate mix), less than 4.52; in [14] (cell material: Jurkat cells), 5.54. Moreover, the pIC50 in experiment [14] (cell material: Jurkat lysate) and in [14] (cell material: Lysate mix) was less than 4.52 throughout.
Take `C#CCNC(=O)c1cc(Nc2cc(C)[nH]n2)nc(N2CCN(Cc3ccc(S(=O)(=O)F)cc3)CC2)n1`: the pIC50 was less than 4.52 in experiment [1] (cell material: Lysate mix); less than 4.52 in experiment [2] (cell material: Lysate mix); less than 4.52 in experiment [3] (cell material: Lysate mix); less than 4.52 in experiment [4] (cell material: Lysate mix); 6.73 in experiment [5] (cell material: Lysate mix); less than 4.52 in experiment [6] (cell material: Lysate mix). Further, the pIC50 in experiment [7] (cell material: Lysate mix) was less than 4.52; in experiment [8] (cell material: Lysate mix), less than 4.52; in experiment [9], less than 4.52; in experiment [10] (cell material: Lysate mix), less than 4.52; in experiment [11] (cell material: Lysate mix), less than 4.52; in [12] (cell material: Lysate mix), 5.6. Further, the pIC50 in experiment [13] (cell material: Lysate mix) and in experiment [14] (cell material: Lysate mix) was less than 4.52 in each case.
Turning to `CCNC(=O)c1cc(Nc2cc(C3CC3)[nH]n2)nc(N2CCN(Cc3ccc(S(=O)(=O)F)cc3)CC2)n1`, the pIC50 was 5.08 in [1] (cell material: Lysate mix); less than 4.52 in [2] (cell material: Lysate mix); less than 4.52 in [3] (cell material: Lysate mix); 5.29 in experiment [4] (cell material: Lysate mix); 6.86 in experiment [5] (cell material: Lysate mix); less than 4.52 in experiment [6] (cell material: Lysate mix). For the same molecule, the pIC50 is less than 4.52 in experiment [7] (cell material: Lysate mix); 5.44 in experiment [8] (cell material: Lysate mix); 4.69 in experiment [9]; less than 4.52 in experiment [10] (cell material: Lysate mix); 5.73 in [11] (cell material: Lysate mix); 5.94 in experiment [12] (cell material: Lysate mix). The pIC50 in [13] (cell material: Lysate mix) and in [14] (cell material: Lysate mix) was less than 4.52 in each case.

The pIC50 is −log10 of the IC50, conventionally taken in molar units. Lower therefore signals a high IC50.
